The text below walks through data of ChEMBL document CHEMBL1201862, “PubChem BioAssay data set” (2004).

Assay [1] in a line: loss of HEK293T viability via ATP – cell-based, plate reader, dry powder, set 10, cytotoxicity control, dose response (AID 743315). Format: functional. The note with it: HEK293.
A short description of assay [2]: toxicity to A549 lung cells – cell-based, plate reader, dry powder, set 6, cytotoxicity control, dose response (AID 743312). Format: functional.
Assay [3] is described as follows: cells. The note with it: HEK293.
Assay [4] has as its target Metabotropic glutamate receptor 5 (Rattus norvegicus, UniProt P31424). Put plainly: Identification of a glycine sulfonamide based non-MPEP site positive allosteric potentiator (PAM) of mGlu5 (calcium_assay). Format: functional.
Assay [5] in a line: HIV-1 Vif–A3G interaction blockers – biochemical, TR-FRET, GST-Vif 1-94, biotin-A3G peptide, dose response retest, primary screen (AID 1117319).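 Also: TR-FRET signal of purified GST-Vif binding a biotinylated A3G peptide; inhibitors lower the FRET signal by blocking Vif and A3G binding.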 Format: functional.
Assay [6] is described as follows: viability loss in HepG2 liver cells – cell-based, ATP luminescence, cherry-pick, set 6, cytotoxicity control, dose response (AID 1053125). Format: functional.
Assay [7] in a line: Counterscreen for activators of the function of SWI/SNF related, matrix associated, actin dependent regulator of chromatin, subfamily a, member 2 (SMARCA2, BRM): Luminescence-based cell-based high throughput dose response assay to identify non-selective compounds using the VP16 reporter assay. Format: functional.
A short description of assay [8]: cells. The note with it: HEK293. The source holds these as a separate data set.
Assay [9] in a line: cells. The note with it: A549.
For assay [10], the target named is SWI/SNF-related matrix-associated actin-dependent regulator of chromatin subfamily A member 2 (Homo sapiens, UniProt P51531). Put plainly: Luminescence-based cell-based high throughput dose response assay to identify activators of the function of SWI/SNF related, matrix associated, actin dependent regulator of chromatin, subfamily a, member 2 (SMARCA2, BRM). Format: functional.

The nature of assay [11]: antifungal activity, alamar blue, dry powder, counter-screen for C. neoformans cell wall antifungals, dose response (AID 743128). Format: functional, organism-based. For orientation: Alamar Blue is a resazurin reagent that responds to reducing activity.
Assay [12] in a line: viability loss in Vero cells – cytotoxicity control for Vif-APOBEC3G degradation inhibitor project, dose response (AID 1117358). Format: functional. As to conditions: Vero.
The nature of assay [13]: HCT116 cell viability decrease, GSK3B pretreatment – CellTiter-Glo, IC50, dose response (AID 1117339). Format: functional. The note with it: HCT-116.
Assay [14] in a line: cytotoxicity toward HCT116 cells – cell-based, CellTiter-Glo luminescence, IC50, dose response (AID 1117332). Format: functional. As to conditions: HCT-116. In general terms: Cellular ATP, detected with luciferase, serves as a proxy for viable cell number.
Assay [15] can be described thus: cytotoxicity toward Colo320 cells – cell-based, CellTiter-Glo luminescence, IC50, dose response (AID 1117334). The note with it: COLO 320. Format: functional.
Assay [16] in a line: SNU-C1 cell viability reduction, dose response, CellTiter-Glo luminescence (AID 1117323). Format: functional, cell-based.
The nature of assay [17]: RKO cell viability reduction, dose response, CellTiter-Glo luminescence (AID 1117322). Format: functional.
Assay [18] in a line: CellTiter-Glo luminescence survival assay, SW480 colon tumor line, concentration-response curve, half-maximal inhibitory concentration (AID 1117338). Format: functional.
Assay [19] is described as follows: Reduced DLD-1 viability, concentration-response, CellTiter-Glo luminescence (AID 1117352). Format: functional.
For assay [20], the target named is Muscarinic acetylcholine receptor M5 (Rattus norvegicus, UniProt P08911). Put plainly: Discovery of Novel Antagonists of Muscarinic Receptor M5: Counterscreen against RAT M5. Format: functional.
For assay [21], the target named is Muscarinic acetylcholine receptor M5 (Homo sapiens, UniProt P08912). Put plainly: inhibition of ACh-evoked human M5 signalling – cell-based, CHO-K1 hM5, Fluo-4 calcium flux, ACh EC80, dose response (AID 743110). Format: functional.
Assay [22] concerns the target E3 ubiquitin-protein ligase Mdm2 (Homo sapiens, UniProt Q00987). Put plainly: MDM2-luc reporter signal enhancers, multi-concentration potency testing, MDM2 ubiquitin-protein ligase inhibitor program, whole-cell format, luminescence detection, 384-well microplate (AID 1394).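 Also: MDM2 E3 inhibitors raise luminescence so EC50 is for signal enhancement.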 Format: functional.
Assay [23] is described as follows: Luminescence-based cell-based high throughput dose response assay to identify activators of the DAF-12 from the parasite S. stercoralis (ssDAF-12). Format: functional.
The target of assay [24] is T1, Oxysterols receptor LXR-beta (Homo sapiens, UniProt P55055).
T1 sequence (P55055 whole entry): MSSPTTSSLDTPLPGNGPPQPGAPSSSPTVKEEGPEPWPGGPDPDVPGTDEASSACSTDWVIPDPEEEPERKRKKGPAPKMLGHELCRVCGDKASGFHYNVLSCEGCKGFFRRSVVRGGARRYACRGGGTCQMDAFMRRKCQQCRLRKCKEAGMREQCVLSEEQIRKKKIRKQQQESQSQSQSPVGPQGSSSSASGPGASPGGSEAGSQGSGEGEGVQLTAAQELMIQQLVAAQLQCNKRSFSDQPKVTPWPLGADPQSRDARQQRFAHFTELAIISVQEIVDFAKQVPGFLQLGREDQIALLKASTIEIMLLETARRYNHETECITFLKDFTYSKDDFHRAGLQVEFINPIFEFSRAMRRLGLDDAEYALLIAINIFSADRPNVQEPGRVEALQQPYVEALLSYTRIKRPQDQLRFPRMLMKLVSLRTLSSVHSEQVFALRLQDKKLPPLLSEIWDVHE
Kind of assay: LXR agonists, Gal4 luciferase reporter, dose response, counter-screen for ssDAF-12 agonist project, cell-based, luminescence, HEK293, S. stercoralis campaign (AID 720737). Format: functional. The note with it: read-out: IC50 (the source's name).

The target in assay [25] is T1, Oxysterols receptor LXR-beta. Format: functional, cell-based.
The nature of assay [26]: cells.

Active and inactive are the calls of the source.

Sequence of Metabotropic glutamate receptor 5 (P31424 whole entry): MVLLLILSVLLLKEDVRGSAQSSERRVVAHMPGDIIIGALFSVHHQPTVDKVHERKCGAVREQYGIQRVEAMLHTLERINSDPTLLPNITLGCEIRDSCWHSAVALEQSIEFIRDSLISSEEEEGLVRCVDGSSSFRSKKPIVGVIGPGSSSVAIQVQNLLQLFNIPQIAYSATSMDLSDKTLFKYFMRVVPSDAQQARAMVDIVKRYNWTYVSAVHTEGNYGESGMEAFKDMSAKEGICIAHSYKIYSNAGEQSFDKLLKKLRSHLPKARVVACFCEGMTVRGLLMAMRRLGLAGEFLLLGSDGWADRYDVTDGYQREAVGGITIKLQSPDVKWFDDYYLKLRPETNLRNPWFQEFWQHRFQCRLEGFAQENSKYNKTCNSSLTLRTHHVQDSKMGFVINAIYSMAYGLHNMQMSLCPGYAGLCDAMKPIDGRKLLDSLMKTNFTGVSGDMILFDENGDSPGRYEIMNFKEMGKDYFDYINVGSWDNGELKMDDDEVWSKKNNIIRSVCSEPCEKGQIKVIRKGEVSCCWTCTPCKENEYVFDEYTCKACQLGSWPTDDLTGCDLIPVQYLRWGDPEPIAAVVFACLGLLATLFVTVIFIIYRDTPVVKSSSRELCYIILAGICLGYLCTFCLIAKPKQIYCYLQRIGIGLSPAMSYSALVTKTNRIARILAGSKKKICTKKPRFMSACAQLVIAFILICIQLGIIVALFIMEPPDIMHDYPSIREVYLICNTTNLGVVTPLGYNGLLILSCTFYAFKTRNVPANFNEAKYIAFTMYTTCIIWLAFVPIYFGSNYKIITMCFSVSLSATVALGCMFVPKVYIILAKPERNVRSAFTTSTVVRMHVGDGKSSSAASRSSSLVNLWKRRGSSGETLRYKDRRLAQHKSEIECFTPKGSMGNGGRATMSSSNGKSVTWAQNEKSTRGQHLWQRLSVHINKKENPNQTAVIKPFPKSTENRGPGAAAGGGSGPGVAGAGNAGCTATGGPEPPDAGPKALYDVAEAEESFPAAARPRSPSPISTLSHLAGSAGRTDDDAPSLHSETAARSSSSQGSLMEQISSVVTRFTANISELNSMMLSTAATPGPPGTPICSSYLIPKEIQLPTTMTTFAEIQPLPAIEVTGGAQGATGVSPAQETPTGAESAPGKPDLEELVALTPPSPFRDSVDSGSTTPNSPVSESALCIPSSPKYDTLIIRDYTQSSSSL
Sequence of Muscarinic acetylcholine receptor M5 (Rattus norvegicus, UniProt P08911) (P08911 whole entry): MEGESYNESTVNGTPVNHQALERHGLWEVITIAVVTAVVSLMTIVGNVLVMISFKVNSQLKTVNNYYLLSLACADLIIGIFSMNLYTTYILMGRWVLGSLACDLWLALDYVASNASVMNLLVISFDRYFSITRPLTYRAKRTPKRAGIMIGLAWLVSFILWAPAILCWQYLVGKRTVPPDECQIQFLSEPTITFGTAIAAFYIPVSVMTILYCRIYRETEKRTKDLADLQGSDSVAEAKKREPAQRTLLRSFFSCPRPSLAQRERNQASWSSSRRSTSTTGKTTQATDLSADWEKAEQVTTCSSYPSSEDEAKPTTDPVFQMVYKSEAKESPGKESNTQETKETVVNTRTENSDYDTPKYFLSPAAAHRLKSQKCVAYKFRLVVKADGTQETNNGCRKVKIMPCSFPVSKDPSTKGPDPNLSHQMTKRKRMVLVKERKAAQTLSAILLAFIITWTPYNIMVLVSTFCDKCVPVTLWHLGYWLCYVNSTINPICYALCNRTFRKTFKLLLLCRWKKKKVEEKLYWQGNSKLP
Sequence of SWI/SNF-related matrix-associated actin-dependent regulator of chromatin subfamily A member 2 (P51531 whole entry): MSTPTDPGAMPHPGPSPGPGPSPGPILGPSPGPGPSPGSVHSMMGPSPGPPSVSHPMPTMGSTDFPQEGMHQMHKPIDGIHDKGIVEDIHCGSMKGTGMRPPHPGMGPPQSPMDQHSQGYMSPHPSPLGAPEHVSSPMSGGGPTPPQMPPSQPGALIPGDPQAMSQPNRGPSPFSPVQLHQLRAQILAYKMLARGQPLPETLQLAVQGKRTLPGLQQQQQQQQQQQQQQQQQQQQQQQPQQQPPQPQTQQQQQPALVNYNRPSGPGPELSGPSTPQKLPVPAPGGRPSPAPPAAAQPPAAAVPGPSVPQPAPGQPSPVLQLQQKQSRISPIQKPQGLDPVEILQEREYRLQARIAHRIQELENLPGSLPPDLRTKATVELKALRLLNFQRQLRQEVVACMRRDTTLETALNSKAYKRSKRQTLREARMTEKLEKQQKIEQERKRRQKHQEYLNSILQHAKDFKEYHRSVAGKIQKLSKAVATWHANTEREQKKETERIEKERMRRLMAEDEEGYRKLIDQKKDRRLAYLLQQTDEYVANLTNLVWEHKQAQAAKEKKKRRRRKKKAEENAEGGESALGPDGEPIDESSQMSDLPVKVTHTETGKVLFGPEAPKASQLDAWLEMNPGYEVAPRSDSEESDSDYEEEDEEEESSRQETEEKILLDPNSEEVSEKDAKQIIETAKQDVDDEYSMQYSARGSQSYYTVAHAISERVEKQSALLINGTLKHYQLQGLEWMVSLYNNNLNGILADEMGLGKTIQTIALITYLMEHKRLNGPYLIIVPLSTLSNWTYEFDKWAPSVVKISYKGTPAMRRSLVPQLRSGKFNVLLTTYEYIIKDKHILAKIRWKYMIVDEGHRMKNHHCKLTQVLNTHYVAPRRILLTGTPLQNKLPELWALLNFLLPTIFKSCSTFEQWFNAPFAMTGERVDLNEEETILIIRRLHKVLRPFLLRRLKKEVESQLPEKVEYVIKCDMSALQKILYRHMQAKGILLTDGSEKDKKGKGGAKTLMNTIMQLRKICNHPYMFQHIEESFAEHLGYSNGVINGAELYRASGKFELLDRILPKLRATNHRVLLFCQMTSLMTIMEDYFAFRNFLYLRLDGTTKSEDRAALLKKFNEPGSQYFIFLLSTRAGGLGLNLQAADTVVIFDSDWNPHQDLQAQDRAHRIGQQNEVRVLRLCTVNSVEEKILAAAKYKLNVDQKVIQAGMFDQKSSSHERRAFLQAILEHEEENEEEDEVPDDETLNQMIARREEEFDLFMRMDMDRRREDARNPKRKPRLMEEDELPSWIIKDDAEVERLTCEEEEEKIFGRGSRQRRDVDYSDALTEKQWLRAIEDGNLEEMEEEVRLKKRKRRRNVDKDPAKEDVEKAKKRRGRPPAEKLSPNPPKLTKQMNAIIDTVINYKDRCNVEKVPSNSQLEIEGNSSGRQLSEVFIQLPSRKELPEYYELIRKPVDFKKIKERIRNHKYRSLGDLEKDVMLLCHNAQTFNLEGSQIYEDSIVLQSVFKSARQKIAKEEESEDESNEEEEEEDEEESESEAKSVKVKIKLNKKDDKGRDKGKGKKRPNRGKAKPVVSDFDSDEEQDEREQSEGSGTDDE
Sequence of E3 ubiquitin-protein ligase Mdm2 (Q00987 whole entry): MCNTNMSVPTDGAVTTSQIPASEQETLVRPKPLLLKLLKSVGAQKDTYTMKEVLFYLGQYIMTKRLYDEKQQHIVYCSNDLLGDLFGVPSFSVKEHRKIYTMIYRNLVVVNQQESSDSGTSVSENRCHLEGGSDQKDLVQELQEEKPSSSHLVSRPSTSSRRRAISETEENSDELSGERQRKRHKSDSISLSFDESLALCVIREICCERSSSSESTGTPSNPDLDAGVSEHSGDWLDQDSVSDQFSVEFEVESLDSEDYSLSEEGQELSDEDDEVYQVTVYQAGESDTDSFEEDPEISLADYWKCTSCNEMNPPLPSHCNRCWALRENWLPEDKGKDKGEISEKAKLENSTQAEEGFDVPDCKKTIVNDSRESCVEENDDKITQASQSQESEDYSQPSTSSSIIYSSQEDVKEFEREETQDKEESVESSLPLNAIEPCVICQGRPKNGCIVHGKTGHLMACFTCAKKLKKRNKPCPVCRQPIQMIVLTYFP
Sequence of Muscarinic acetylcholine receptor M5 (Homo sapiens, UniProt P08912) (P08912 whole entry): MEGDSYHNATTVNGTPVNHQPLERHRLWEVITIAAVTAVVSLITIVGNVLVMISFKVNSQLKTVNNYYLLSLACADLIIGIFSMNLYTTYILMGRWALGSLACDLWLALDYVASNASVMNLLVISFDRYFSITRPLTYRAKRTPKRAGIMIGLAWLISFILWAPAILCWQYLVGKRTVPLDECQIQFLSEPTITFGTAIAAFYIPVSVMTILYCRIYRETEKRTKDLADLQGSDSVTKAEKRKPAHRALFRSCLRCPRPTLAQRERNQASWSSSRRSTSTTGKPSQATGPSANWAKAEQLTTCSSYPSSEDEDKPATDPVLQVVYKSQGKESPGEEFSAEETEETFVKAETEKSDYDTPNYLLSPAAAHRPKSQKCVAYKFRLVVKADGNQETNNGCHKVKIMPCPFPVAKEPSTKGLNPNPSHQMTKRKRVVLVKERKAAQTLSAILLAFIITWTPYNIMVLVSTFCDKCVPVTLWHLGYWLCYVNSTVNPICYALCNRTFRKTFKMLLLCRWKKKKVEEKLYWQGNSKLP

Turning to `CC(C)(C)c1ccc(OCCn2cnc3ccccc32)cc1`, the AC50 was 15.9 µM (active) in [1], 23.9 µM (active) in assay [2] and 20.9 µM (active) in the assay “cells [3]”.
For `CCS(=O)(=O)N1c2ccccc2CC[C@H]1C(=O)Nc1cccc(Cl)c1`, in assay [4], the EC50 came out at 1.74 µM.
Turning to `Cc1cc(NC(=O)Cn2cnc3c(nnn3-c3cccc(F)c3)c2=O)no1`, the IC50 in assay [5] is > 100 µM (active).
With `N#Cc1ccc(/C=C\c2[nH]ccc3c4ccccc4nc2-3)cc1`, the AC50 in assay [6] was 40.7 µM (active); in the assay “cells [8]”, > 52 µM (inactive); in “cells [9]” it was 24.2 µM (active). Besides, the EC50 in assay [7] and in assay [10] was > 91.2 µM (inactive) each time.
As for `Cc1ccc(OCCn2cnc3ccccc32)cc1`, the AC50 in [11] is 38.9 µM (active).
`COc1c(OC(C)=O)ccc(/C=C/c2ccc3ccccc3n2)c1[N+](=O)[O-]`: in assay [12], the CC50 is 33.2 µM (active).
Regarding `C[S+](CC[C@H](N)C(=O)O)C[C@H]1O[C@@H](n2cnc3c(N)ncnc32)[C@H](O)[C@H]1O` (stereo partly specified), the IC50 in assay [13], in assay [14], in assay [15], in assay [16], in assay [17] and in assay [18] was > 20 µM (inactive) throughout. In addition, the IC50 in assay [19] is > 20 µM (inactive).
As for `CC(=O)c1cccc(NCc2cc(C(=O)N(C)C(C)c3ccccn3)no2)c1` (stereo unspecified), the IC50 in assay [20] was 7.11 µM (active); in assay [21], 6.77 µM (active).
For `Cc1cc(C(=O)CSc2nnc(Nc3ccccc3)s2)c(C)n1CC1CCCO1` (stereo unspecified), in assay [22], the EC50 is 20.4 µM (not active).
Consider `Clc1ccc(-c2nc3n(n2)Cc2ccccc2-3)cc1`, for which the IC50 in [23] is > 67.5 µM (inactive). Further, the EC50 (in assay [24]; in assay [25]; in “cells [26]”) was > 67.5 µM (inactive) each time.

The AC50 is the concentration at which the activity in the assay is half-maximal. In general, IC50 refers to the midpoint of a concentration-inhibition curve. One may read the CC50 as the concentration that lowers cell viability or growth by half.
